Columns and labels:
[1] = system: Plasmodium falciparum; test: NOVARTIS: Inhibition of Plasmodium falciparum 3D7 (drug-susceptible) proliferation in erythrocyte-based infection assay; format: functional, organism-based; conditions: Plasmodium falciparum, 3D7
[2] = system: Plasmodium falciparum; test: NOVARTIS: Inhibition of Plasmodium falciparum W2 (drug-resistant) proliferation in erythrocyte-based infection assay; format: functional, organism-based; conditions: Plasmodium falciparum, W2; read-out: EC50
[3] = NOVARTIS: Cytotoxicity against human hepatocellular carcinoma cell line (Huh7); format: toxicity, cell-based, Huh-7; conditions: Huh7 cells (hepatocellular carcinoma cell line)

Structure (SMILES)	EC50 [1]	EC50 [2]	CC50 [3]
NNc1ncnc2[nH]cnc12	303 nM	666 nM	> 10000 nM
CC(C)(C)NCC(O)COc1cccc2oc3ccccc3c12 (centres undefined)	> 1250 nM	653 nM	> 10000 nM
COc1ccc2nc(C)cc(Nc3ccc(Cl)c(Cl)c3)c2c1	249 nM	426 nM	6250 nM
O=C(Nc1ccc(-c2cnc(-c3ccc(NC(=O)c4cccc([N+](=O)[O-])c4)cc3)nc2)cc1)c1cccc([N+](=O)[O-])c1	> 480 nM	681 nM	> 10000 nM
CC(=O)Nc1c(C)cc(Cl)cc1Cl	1450 nM	661 nM	> 10000 nM
COc1ccc(OC)c(-c2ccc(O)c(CNCC(C)c3ccccc3)c2)c1 (centres undefined)	960 nM	672 nM	> 10000 nM
Oc1ccc(-c2ccc(F)cc2)cc1CNCCN1CCOCC1	901 nM	681 nM	> 10000 nM
COc1ccc(C2SCCN2S(=O)(=O)c2cccc([N+](=O)[O-])c2)cc1OC (centres undefined)	> 1250 nM	> 676 nM	> 10000 nM
CCCCNC(=O)CCCNC(=O)Cn1cnc2sc3c(c2c1=O)CCCC3	> 1250 nM	> 683 nM	> 10000 nM
CC(C)CN(C(C(=O)NC(CN1CCCC1)c1ccccc1)c1ccccc1)S(=O)(=O)c1ccccn1 (centres undefined)	1320 nM	682 nM	> 10000 nM
Cc1cc(Oc2ncnc(N(C)CC(=O)OC(C)(C)C)c2[N+](=O)[O-])c2nncn2n1	> 1630 nM	> 684 nM	> 10000 nM
CCOC(=O)N1CCN(S(=O)(=O)c2ccc(C(=O)Nc3sc4c(c3C(N)=O)CCN(CC)C4)cc2)CC1	> 12500 nM	1390 nM	20400 nM
O=C(Nc1ccc2oc(-c3ccc(I)cc3)nc2c1)c1ccc([N+](=O)[O-])o1	3160 nM	2200 nM	33800 nM
Cc1ccc(-c2c3c(nc4sc(C(=O)Nc5ccc(Cl)cc5)c(N)c24)CCCC3)o1	8310 nM	6780 nM	> 100000 nM
COc1ccc(Nc2nc(Nc3ccc(OC)cc3)c3[nH]ccc3n2)cc1	667 nM	678 nM	> 10000 nM
COC(=O)C1=C(C)NC2=C(C(=O)CC(C)(C)C2)C1c1ccccc1[N+](=O)[O-] (centres undefined)	> 12500 nM	5970 nM	> 91500 nM
COCCNC(=O)c1ccc(NCCc2ccc(Cl)cc2)c(S(=O)(=O)Nc2cccc(C(F)(F)F)c2)c1	7340 nM	6520 nM	> 100000 nM
CC1=C(CCN(CCCN(C)C)CCCN(C)C)C(C)(C)CCC1	193 nM	498 nM	7660 nM
CC(=O)Nc1ccc(NC2=CC(=NS(=O)(=O)c3ccccc3)c3ccccc3C2=O)cc1	509 nM	466 nM	6880 nM
Cc1nnc2sc(SCc3cccc([N+](=O)[O-])c3)nn2c1=O	> 1070 nM	942 nM	> 13900 nM
CCn1c(C)cc(/C=C2\C(=O)NC(=O)N(c3cccc(Cl)c3)C2=O)c1C	> 674 nM	679 nM	> 10000 nM
Clc1ccccc1Nc1nc2nonc2nc1Nc1cccc(Br)c1	> 1250 nM	> 678 nM	> 10000 nM
Cc1cc(NS(=O)(=O)c2ccc(NC(=O)c3ccc([N+](=O)[O-])cc3)cc2)no1	> 1250 nM	> 678 nM	> 10000 nM

Structure (SMILES)	EC50 [1]	EC50 [2]	CC50 [3]
COc1cccc(CCN2Cc3ccc(C(=O)NC(C)C)cc3N=C2c2ccc(C)cc2)c1	938 nM	680 nM	> 10000 nM
NC(=O)C(Cc1ccccc1)Nc1ccc([N+](=O)[O-])cc1[N+](=O)[O-] (centres undefined)	883 nM	680 nM	> 10000 nM
COc1ccc(NC(=O)Cn2c(-c3ccc(OC)cc3)cn(-c3ccc(C)cc3)c2=O)cc1	889 nM	> 676 nM	> 10000 nM
Cc1ccc(Sc2c(C)nn(C(=O)c3cccnc3)c2C)cc1	322 nM	> 677 nM	> 10000 nM
COc1ccc([N+](=O)[O-])cc1N(CC1CO1)S(=O)(=O)c1ccc(C)cc1 (centres undefined)	> 12500 nM	6640 nM	> 100000 nM
CCOC(=O)c1cnc(SCC(=O)Nc2cc(C)ccc2C)nc1N	> 1250 nM	> 660 nM	> 10000 nM
CCCCCCN(C(=O)c1ccccc1)C(CC)c1nc2ccccc2c(=O)n1-c1ccccc1OC (centres undefined)	1050 nM	526 nM	> 7980 nM
COc1ccccc1NC(=O)CCCC(=O)OC(C)C(=O)c1ccccc1 (centres undefined)	> 1250 nM	> 659 nM	> 10000 nM
FC(F)(F)c1cccc(CNC2CCN(CCc3ccccc3)CC2)c1	174 nM	487 nM	7390 nM
Cc1ccc(Sc2cc(C(=O)NCc3ccco3)c3ccccc3n2)cc1	> 6980 nM	6580 nM	> 100000 nM
C(=C\c1ccccc1)/CNC1CCN(Cc2ccccc2)CC1	995 nM	657 nM	> 10000 nM
Cc1cccc(Nc2nc(NCc3ccco3)c3ccccc3n2)c1	266 nM	326 nM	4930 nM
COc1ccc(NC(=O)NCc2cccn2Cc2ccc(F)cc2)cc1OC	1070 nM	661 nM	> 10000 nM
CCOc1ccc(NC2=C(N3CCOCC3)C(=O)c3ccccc3C2=O)cc1	3660 nM	6570 nM	> 100000 nM
Cc1cccc(C)c1NC(=O)N1CCN(C2CCCCC2)CC1	> 12500 nM	> 6560 nM	> 100000 nM
CC(=O)N1CCc2cc(NC3CCN(Cc4ccccc4)CC3)ccc21	> 1250 nM	> 656 nM	> 10000 nM
CCOC(=O)c1ccc(N2C(=O)c3[nH]nc(C)c3C2c2ccccc2OC)cc1 (centres undefined)	610 nM	> 655 nM	> 10000 nM
CC1N=C2c3ccccc3N=C(SCc3ccc(F)cc3)N2C1=O (centres undefined)	> 12500 nM	> 6530 nM	> 100000 nM
CCCCCCCCN[C@@H](C)[C@@H](O)c1ccc(SC(C)C)cc1	> 1250 nM	413 nM	> 6250 nM
COc1cc(C=CC(=O)Nc2ccc3nc(N4CCN(c5ncccn5)CC4)cc(C)c3c2)cc(OC)c1OC	841 nM	505 nM	7420 nM
CCCN(CCC)C(=O)c1c[nH]c2ccc(S(=O)(=O)N(C)c3ccc(F)cc3)cc2c1=O	> 12500 nM	6650 nM	> 100000 nM
CC(C)(C)CC(C)(C)Nc1c(-c2ccccc2OC(=O)c2ccc(Br)cc2)nc2ccccn12	1310 nM	96 nM	> 1430 nM
CC(O)c1ccc(NC(=O)c2cnn3c2NC(c2ccco2)CC3C(F)(F)F)cc1 (centres undefined)	> 1250 nM	> 675 nM	> 10000 nM

Structure (SMILES)	EC50 [1]	EC50 [2]	CC50 [3]
Cc1cccc(CN2CCC(CNC(=S)Nc3ccc4nc(N5CCN(C)CC5)cc(C)c4c3)CC2)c1	> 9900 nM	6760 nM	> 100000 nM
COc1ccc(N2C(=O)c3cccnc3C2=O)cc1	1980 nM	665 nM	> 10000 nM
CCC1=NN2C(=N)/C(=C/c3ccc(OCCOc4ccc(Br)cc4)c(OC)c3)C(=O)N=C2S1	> 1250 nM	> 675 nM	> 10000 nM
O=C1Nc2ccccc2C1=NN=Cc1ccc(-c2ccccc2[N+](=O)[O-])o1	> 12500 nM	6750 nM	> 100000 nM
COc1cccc(CN2CCN(C3CCCC(C)C3)CC2)c1OC (centres undefined)	> 12500 nM	> 6700 nM	> 100000 nM
CC1CCN(S(=O)(=O)c2ccc(C(=O)Nc3sc4c(c3C(N)=O)CCN(C)C4)cc2)CC1	> 1250 nM	> 665 nM	> 10000 nM
COc1ccc(C=NNc2cc(C)nc(-c3ccccc3)n2)cc1OC	8510 nM	3300 nM	48800 nM
COc1ccc(C(=NO)C2CC2c2ccc(Cl)cc2)cc1 (centres undefined)	735 nM	668 nM	> 10000 nM
CCCCCN(C(=O)c1cccc(C(F)(F)F)c1)C(CC)c1nc2ccccc2c(=O)n1-c1ccccc1OC (centres undefined)	728 nM	673 nM	> 10000 nM
Cc1cccc(NC(=O)N2CCN(C(=O)c3nc(-c4ccccc4)nc(C)c3C(=O)OC(C)C)CC2C)c1C (centres undefined)	509 nM	384 nM	> 5760 nM
COc1ccc(C(=O)C[n+]2ccc(N)c(C)c2C)cc1	438 nM	> 665 nM	> 10000 nM
CCC(=O)N1c2ccccc2NC2=C(C(=O)CC(C)(C)C2)C1c1ccc2c(c1)OCO2 (centres undefined)	3530 nM	6720 nM	> 100000 nM
CCOc1cccc2c1N(C(=O)c1ccc(C)cc1)C(C)(C)C1=C2C2(SC(C(=O)OC)=C(C(=O)OC)S2)C(C(=O)OC)=C(C(=O)OC)S1	1080 nM	663 nM	> 10000 nM
COC(=O)C(C)NC(=O)c1ccc(F)cc1 (centres undefined)	> 1250 nM	681 nM	> 10000 nM
CC(=O)N(Cc1ccc(F)cc1)C1=C(NCc2ccccc2)C(=O)c2ccccc2C1=O	680 nM	679 nM	> 10000 nM
O=C1NN(c2ccc(Br)cc2)C(=O)/C1=C\c1c(O)ccc2ccccc12	856 nM	653 nM	> 10000 nM
COc1cc(NC(C)CCCN(Cc2ccc(OC)c(OC)c2)C(=O)c2ccccc2C)c2ncccc2c1 (centres undefined)	867 nM	831 nM	> 12200 nM
Cc1ccc(NC(=O)C2C3C=CC4(O3)C2C(=O)N(Cc2cccnc2)C4C(=O)NC2CCCCC2)cc1 (centres undefined)	> 1640 nM	682 nM	> 10000 nM
O=C(CCl)Nc1ccc(N2CCCCCC2)cc1	1260 nM	1330 nM	19700 nM
CC(C)(C)NS(=O)(=O)c1cc(Cl)ccc1Cl	> 1250 nM	730 nM	> 10900 nM
CN(C)CC(C)(C)CNCc1cc(-c2ccnc3cc(Cl)ccc23)ccc1O	880 nM	660 nM	> 10000 nM
CC(C)[C@@]1(NC(=O)[C@@H]2C[C@@H]3c4cccc5[nH]cc(c45)C[C@H]3N(C)C2)O[C@@]2(O)[C@@H]3CCCN3C(=O)[C@H](CC3CCCCC3)N2C1=O	1160 nM	768 nM	> 11400 nM
